± gives the expanded uncertainty stated by the source.
Assay: mn = molality of the nth substance listed, in mol/kg
Details: 100 kPa, Liquid; for speed of sound: Frequency=3 MHz, Sing-around technique in a fixed-path interferometer; for mass density: Vibrating tube method

O=C(CO)[C@@H](O)[C@H](O)[C@H](O)CO [D-fructose] + O
Details	mass density, 288.15 K [kg/m3]	mass density, 293.15 K [kg/m3]	mass density, 298.15 K [kg/m3]	mass density, 303.15 K [kg/m3]	mass density, 308.15 K [kg/m3]	speed of sound, 288.15 K [m/s]	speed of sound, 298.15 K [m/s]	speed of sound, 303.15 K [m/s]	speed of sound, 308.15 K [m/s]
m1 = 0.05	1003.31 ± 0.16	1002.37 ± 0.16	1001 ± 0.16	999.53 ± 0.16	998.08 ± 0.16	–	–	1512.2 ± 2.2	–
m1 = 0.15	–	1009.21 ± 0.16	–	–	1004.78 ± 0.16	–	–	1518.1 ± 2.2	–
m1 = 0.25	1017.01 ± 0.17	1015.91 ± 0.17	1014.56 ± 0.17	1013.07 ± 0.17	–	1484.3 ± 2.2	1513 ± 2.2	–	1534.2 ± 2.2
m1 = 0.35	1023.52 ± 0.17	1022.43 ± 0.17	1021.07 ± 0.17	1019.48 ± 0.17	1017.69 ± 0.17	1491.3 ± 2.2	1519.1 ± 2.2	1530.3 ± 2.2	1539.9 ± 2.2

Reference: the NIST ThermoML archive (doi:10.1016/j.tca.2015.03.015)
